In ChEMBL document CHEMBL1201862, “PubChem BioAssay data set” (2004):
The source made the active and inactive calls.

Columns and labels:
[1] = THP-1 cell cytotoxicity, dose response, cytotoxicity control for non-replicating M. tuberculosis project (AID 489025); format: functional
BJ = assay: BJ-TERT fibroblast viability loss – cell-based, RAS-independent, luminescence, dose response (AID 1933); format: functional; conditions: Homo sapiens
[2] = target: T1, Replicative DNA helicase DnaB (Mycobacterium tuberculosis, UniProt P9WMR3); assay: DnaB intein splicing inhibitors, dose response, biochemical, cell-free fluorescence (AID 449749); format: functional
T1 sequence (P9WMR3 whole entry): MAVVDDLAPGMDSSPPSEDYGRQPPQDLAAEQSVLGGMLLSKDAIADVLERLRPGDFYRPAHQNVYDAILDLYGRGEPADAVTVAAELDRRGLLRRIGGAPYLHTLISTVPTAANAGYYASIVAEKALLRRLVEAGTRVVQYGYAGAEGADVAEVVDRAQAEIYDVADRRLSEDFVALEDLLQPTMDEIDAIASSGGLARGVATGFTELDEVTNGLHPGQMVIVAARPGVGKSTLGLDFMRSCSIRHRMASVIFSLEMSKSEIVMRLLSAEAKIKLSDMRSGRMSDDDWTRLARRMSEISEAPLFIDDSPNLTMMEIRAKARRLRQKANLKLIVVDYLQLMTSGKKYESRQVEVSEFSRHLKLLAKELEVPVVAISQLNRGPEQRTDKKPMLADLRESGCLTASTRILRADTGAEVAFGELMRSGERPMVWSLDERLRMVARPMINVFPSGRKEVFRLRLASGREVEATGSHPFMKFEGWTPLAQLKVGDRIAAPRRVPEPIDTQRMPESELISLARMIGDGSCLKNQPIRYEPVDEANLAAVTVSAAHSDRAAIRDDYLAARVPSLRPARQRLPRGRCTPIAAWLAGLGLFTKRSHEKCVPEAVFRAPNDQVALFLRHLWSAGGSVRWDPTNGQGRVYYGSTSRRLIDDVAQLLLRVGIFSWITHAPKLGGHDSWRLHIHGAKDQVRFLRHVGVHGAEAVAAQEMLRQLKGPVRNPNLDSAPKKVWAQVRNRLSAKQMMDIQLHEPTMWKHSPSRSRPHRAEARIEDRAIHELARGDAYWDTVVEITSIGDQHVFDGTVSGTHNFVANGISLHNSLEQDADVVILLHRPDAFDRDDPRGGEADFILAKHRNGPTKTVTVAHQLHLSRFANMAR

[3] = target: T2, Apoptotic protease-activating factor 1 (Homo sapiens, UniProt O14727); format: functional
T2 sequence (O14727 whole entry): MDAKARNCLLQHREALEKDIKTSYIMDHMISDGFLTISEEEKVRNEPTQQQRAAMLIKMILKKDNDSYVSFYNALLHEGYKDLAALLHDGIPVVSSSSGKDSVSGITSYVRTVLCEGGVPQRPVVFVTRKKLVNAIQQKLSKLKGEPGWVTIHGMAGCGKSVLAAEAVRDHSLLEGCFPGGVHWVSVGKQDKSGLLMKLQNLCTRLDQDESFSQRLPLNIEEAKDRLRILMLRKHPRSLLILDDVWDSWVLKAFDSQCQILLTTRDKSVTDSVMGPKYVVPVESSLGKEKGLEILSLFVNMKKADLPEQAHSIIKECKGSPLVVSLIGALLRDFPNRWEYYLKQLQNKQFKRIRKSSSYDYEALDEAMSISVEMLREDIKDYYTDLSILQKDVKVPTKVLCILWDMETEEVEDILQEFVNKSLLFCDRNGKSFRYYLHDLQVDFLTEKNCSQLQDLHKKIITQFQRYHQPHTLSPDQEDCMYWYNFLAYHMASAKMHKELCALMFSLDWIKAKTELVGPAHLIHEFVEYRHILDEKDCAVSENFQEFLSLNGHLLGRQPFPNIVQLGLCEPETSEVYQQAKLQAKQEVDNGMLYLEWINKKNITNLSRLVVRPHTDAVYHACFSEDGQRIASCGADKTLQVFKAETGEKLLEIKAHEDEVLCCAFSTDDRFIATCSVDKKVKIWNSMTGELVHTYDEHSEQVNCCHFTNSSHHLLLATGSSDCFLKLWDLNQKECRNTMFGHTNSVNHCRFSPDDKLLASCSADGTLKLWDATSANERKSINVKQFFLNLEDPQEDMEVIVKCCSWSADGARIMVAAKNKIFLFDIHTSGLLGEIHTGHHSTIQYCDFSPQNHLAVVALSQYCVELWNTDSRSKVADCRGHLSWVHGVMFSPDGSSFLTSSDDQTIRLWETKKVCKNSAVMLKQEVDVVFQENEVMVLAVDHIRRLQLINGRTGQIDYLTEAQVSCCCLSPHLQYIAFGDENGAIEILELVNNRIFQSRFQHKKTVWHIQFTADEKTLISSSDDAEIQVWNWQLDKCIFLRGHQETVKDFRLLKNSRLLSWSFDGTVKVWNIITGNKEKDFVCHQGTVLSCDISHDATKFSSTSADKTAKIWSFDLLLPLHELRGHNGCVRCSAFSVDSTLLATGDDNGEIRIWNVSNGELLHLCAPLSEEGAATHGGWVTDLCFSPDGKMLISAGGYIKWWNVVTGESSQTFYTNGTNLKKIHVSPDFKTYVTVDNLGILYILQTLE

[4] = target: Mitochondrial peptide methionine sulfoxide reductase (Bos taurus, UniProt P54149); assay: Absorbance-based biochemical high throughput dose response assay for activators of Methionine sulfoxide reductase A (MsrA).; format: functional
Genome polyprotein = Genome polyprotein (dengue virus type 2, UniProt P29990); assay: flavivirus cap methylation enzyme inhibition – biochemical, confirmation dose response, primary screen (AID 588689); format: functional
[5] = viability loss in THP-1 monocytes – THP-1 cells, cytotoxicity control for Vif-APOBEC3G degradation inhibitor project, dose response (AID 1117359); format: functional; conditions: THP-1
MEF = assay: SAR analysis of small molecule cytotoxicity of MazEF TA System activators in embryonic fibroblast (MEF) cells. [Related pubchem assays (depositor defined):AID504720, AID504743]; format: functional; conditions: Mus musculus
Nonstructural protein 1 = Nonstructural protein 1 (Influenza A virus, UniProt Q194T2); format: functional, Influenza A virus (A/California/07/2009(H1N1))
Sequence of Nonstructural protein 1 (Q194T2 whole entry): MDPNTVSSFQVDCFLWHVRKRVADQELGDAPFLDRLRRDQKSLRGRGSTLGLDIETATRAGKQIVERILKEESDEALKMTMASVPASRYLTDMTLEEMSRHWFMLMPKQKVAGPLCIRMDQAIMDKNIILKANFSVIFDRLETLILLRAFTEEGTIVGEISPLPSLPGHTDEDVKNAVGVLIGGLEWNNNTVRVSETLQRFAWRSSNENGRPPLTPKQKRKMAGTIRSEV

Sequence of Genome polyprotein (P29990 2492-3391 limits assumed): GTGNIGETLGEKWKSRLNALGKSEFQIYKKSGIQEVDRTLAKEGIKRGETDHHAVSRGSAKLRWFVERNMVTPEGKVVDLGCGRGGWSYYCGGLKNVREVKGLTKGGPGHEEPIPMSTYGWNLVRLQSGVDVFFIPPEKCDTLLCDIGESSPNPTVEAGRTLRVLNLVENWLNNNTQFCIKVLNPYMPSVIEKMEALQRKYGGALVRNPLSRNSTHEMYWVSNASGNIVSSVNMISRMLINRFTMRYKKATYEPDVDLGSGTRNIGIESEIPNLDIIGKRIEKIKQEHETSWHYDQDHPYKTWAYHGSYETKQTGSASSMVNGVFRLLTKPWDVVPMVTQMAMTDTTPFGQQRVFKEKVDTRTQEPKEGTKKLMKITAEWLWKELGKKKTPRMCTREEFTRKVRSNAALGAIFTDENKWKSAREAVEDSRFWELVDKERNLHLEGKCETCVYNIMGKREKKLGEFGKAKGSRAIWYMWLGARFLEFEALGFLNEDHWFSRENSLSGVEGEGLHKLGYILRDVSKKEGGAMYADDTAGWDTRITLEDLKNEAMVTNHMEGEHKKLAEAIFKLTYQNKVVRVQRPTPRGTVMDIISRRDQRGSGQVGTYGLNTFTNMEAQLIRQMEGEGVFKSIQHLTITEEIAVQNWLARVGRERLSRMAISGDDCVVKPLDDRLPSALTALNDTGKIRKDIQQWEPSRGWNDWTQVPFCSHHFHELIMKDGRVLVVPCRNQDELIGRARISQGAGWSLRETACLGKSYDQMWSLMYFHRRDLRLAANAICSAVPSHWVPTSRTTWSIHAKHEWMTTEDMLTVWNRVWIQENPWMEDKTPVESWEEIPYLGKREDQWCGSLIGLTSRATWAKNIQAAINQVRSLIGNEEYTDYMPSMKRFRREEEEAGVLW
Sequence of Mitochondrial peptide methionine sulfoxide reductase (P54149 whole entry): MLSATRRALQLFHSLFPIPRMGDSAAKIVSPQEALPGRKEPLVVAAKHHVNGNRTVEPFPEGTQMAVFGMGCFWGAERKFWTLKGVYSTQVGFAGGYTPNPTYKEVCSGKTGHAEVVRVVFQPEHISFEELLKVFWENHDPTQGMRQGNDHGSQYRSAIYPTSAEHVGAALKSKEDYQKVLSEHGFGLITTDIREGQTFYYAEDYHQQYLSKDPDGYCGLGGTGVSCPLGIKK

Cc1nc2c(=O)n(C)c(=O)nc-2n(C)n1
CC50 [1]: 2.73 µM (active) | EC50 (BJ): 4.56 µM (active) | AC50 [2]: 0.0978 µM (active) | IC50 [3]: 0.0375 µM (active) | EC50 [4]: 63.7 µM (inactive)

O=C1C=C(c2c(O)ccc3ccccc23)c2ccccc2C1=O
IC50 (Genome polyprotein): 5.91 µM (active) | CC50 [5]: 7.1 µM (active) | CC50 (MEF): 3.84 µM (active) | IC50 (Nonstructural protein 1): 46.5 µM (active)

Oc1nc(Nc2ccccc2Cl)cc2ccccc12
AC50 [2]: 9.33 µM (active) | IC50 [3]: 6.11 µM (active)

O=C(CCN1C(=O)/C(=C\c2ccco2)SC1=S)Nc1ccc(C(=O)O)c(O)c1
IC50 (Genome polyprotein): > 100 µM (active)
